Results published in article PMC4703368, “A Conserved Interaction between a C-Terminal Motif in Norovirus VPg and the HEAT-1 Domain of eIF4G Is Essential for Translation Initiation” (PLoS Pathogens, 2016).

Tests used:
[1] = molecular target: His-eIF4GI HEAT-1; test: cobalt affinity pull-down, SDS PAGE band quantification; conditions: parent: est. 100; read off a plot
[2] = system: His-eIF4GI HEAT-1; test: cobalt affinity pull-down, GST-VPg C-terminal fusions as prey (Fig 4B-E); assay type: binding, human; conditions: for % binding (relative to WT) / Bait/Prey / Prey/Bait: Figure 4E; for % binding (relative to WT): ImageJ quantification; for Bait/Prey / Prey/Bait: band density ratio, ImageJ; for binding to His-eIF4GI HEAT-1 in cobalt pull-down: bait 2.6 µM, GST-VPg fusions 1.5 µM; for binding to His-eIF4GI HEAT-1 in cobalt pull-down / binding to His-eIF4GI HEAT-1, % of wild-type: 25 mM MES, 150 mM NaCl, pH 6.5; for binding to His-eIF4GI HEAT-1, % of wild-type: quantification of pull-down, Fig 4E
[3] = system: His-tagged MNV VPg(1–124); test: cobalt affinity pull-down, eIF4GI HEAT-1 mutants as prey (Fig 5D-E)

Row | Substance | percent of parent (% of WT (normalised OD ratio)) [1] | % binding (relative to WT) ([2]; repeat 1, 2014-07-24) [%] | Bait/Prey ([2]; repeat 1, 2014-07-24) | Prey/Bait ([2]; repeat 1, 2014-07-24) | % binding (relative to WT) ([2]; repeat 2, 2014-07-25) [%] | Bait/Prey ([2]; repeat 2, 2014-07-25) | Prey/Bait ([2]; repeat 2, 2014-07-25) | % binding (relative to WT) ([2]; repeat 3, 2014-07-25) [%] | Bait/Prey ([2]; repeat 3, 2014-07-25) | Prey/Bait ([2]; repeat 3, 2014-07-25) | % binding (relative to WT) ([2]; repeat 4, 2014-07-31) [%] | Bait/Prey ([2]; repeat 4, 2014-07-31) | Prey/Bait ([2]; repeat 4, 2014-07-31) | binding to His-eIF4GI HEAT-1 in cobalt pull-down [2] | also measured
1 | GST-MNV VPg(102–124) K120A | 90 | – | – | – | – | – | – | – | – | – | – | – | – | – | –
2 | GST-MNV VPg(102–124) R113A | 64 | – | – | – | – | – | – | – | – | – | – | – | – | – | –
3 | R113A | – | 63.4705 | 4.285 | 0.2334 | 60.4116 | 3.025 | 0.3306 | 58.2069 | 3.0762 | 0.3251 | 76.2941 | 2.643 | 0.3784 | capable of binding eIF4GI HEAT-1 | binding to His-eIF4GI HEAT-1, % of wild-type [2]: 60–80%
4 | GST-MNV VPg(102–124) F123A | 6 | – | – | – | – | – | – | – | – | – | – | – | – | – | –
5 | E913R | – | – | – | – | – | – | – | – | – | – | – | – | – | – | Relative density normalised to WT (%) ([3]; 150 mM NaCl, experiment 1): 72.7%; Relative density normalised to WT (%) ([3]; 150 mM NaCl, experiment 2): 89.6%; Relative density normalised to WT (%) ([3]; 150 mM NaCl, experiment 3): 82.8%; Relative density normalised to WT (%) ([3]; 300 mM NaCl, experiment 1): 49.0%; Relative density normalised to WT (%) ([3]; 300 mM NaCl, experiment 2): 56.0%
6 | GST-MNV VPg(102–124) D110A | 75 | – | – | – | – | – | – | – | – | – | – | – | – | – | –
7 | GST-MNV VPg(102–124) V115A | 3 | – | – | – | – | – | – | – | – | – | – | – | – | – | –
8 | D110A | – | 71.5502 | 3.801 | 0.2631 | 69.0469 | 2.646 | 0.3779 | 77.4561 | 2.312 | 0.4326 | 83.3957 | 2.418 | 0.4136 | capable of binding eIF4GI HEAT-1 | binding to His-eIF4GI HEAT-1, % of wild-type [2]: 60–80%
9 | K120A | – | 102.078 | 2.664 | 0.3754 | 80.9274 | 2.258 | 0.4429 | 85.5916 | 2.092 | 0.478 | 78.1139 | 2.581 | 0.3874 | appears to bind as effectively as the wild-type sequence | % binding (relative to WT) ([2]; repeat 7, 2015-08-05): 78.74%; Bait/Prey ([2]; repeat 7, 2015-08-05): 4.118; Prey/Bait ([2]; repeat 7, 2015-08-05): 0.2428
